This passage reports TGI and GI50 results from PubChem BioAssay (NCI).

Several values for one entry are separate records, joined by “and”; a condition that tells them apart may be missing. Equal values may be shown once.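 Cells were grown in 96-well plates and exposed to each compound for 48 hours at five concentrations; endpoints were interpolated linearly between bracketing concentrations, or set to the highest concentration if not reached. GI50 = concentration required for 50% inhibition of growth. TGI marks complete inhibition of growth.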

Some test systems named below: UO-31 renal; MCF7 breast; SF-295 CNS; NCI-H522 lung; PC-3 prostate; A549 NSCLC; HS 578T breast; BT-549 breast; OVCAR-8 ovarian; TK-10 renal.
Assay in all cases: DTP human tumour cell line panel, 48 h

Take `CS(=O)(=O)OCCN(CCOS(C)(=O)=O)c1ccc(C=Nc2ccc(-c3csc(COc4ccccc4)n3)cc2)cc1`: the TGI in the assay with UO-31 renal worked out at 2.93 µM; with MCF7 breast it was 81.8 µM; with SF-295 CNS, 17.8 µM; in the assay on NCI-H522 lung it was 0.868 µM; in the assay on PC-3 prostate it was 28.2 µM; with A549 NSCLC it was 32.1 µM. Besides, the TGI was above 53.1 µM in the assay with HS 578T breast, 37 µM in the assay on BT-549 breast, 19.6 µM with OVCAR-8 ovarian and 12.5 µM with TK-10 renal.
For the molecule `CC(C)=CC[C@@H]1CC2(CC=C(C)C)C(=O)C(OC3(C(=O)c4ccccc4)C(=O)C4(CC=C(C)C)C[C@@H](CC=C(C)C)C(C)(C)C(CC=C(C)C)(C4=O)C3=O)(C(=O)c3ccccc3)C(=O)C(CC=C(C)C)(C2=O)C1(C)C` (some centres undefined), the GI50 in the assay on UO-31 renal was 1.28 µM; in the assay with MCF7 breast, 1.37 µM; in the assay on SF-295 CNS, 1.01 µM; in the assay on NCI-H522 lung, 1.07 µM; in the assay on PC-3 prostate, 1.28 µM; in the assay with A549 NSCLC it was 1.73 µM. Also, the GI50 is 1.6 µM in the assay on HS 578T breast, 0.884 µM with BT-549 breast, 1.7 µM in the assay on OVCAR-8 ovarian and 1.54 µM with TK-10 renal. Moreover, the TGI in the assay with UO-31 renal turned out to be 4.82 µM; in the assay with MCF7 breast, 5.85 µM; in the assay with SF-295 CNS, 2.5 µM; in the assay with NCI-H522 lung, 3.72 µM; in the assay with PC-3 prostate, 4.36 µM; with A549 NSCLC, 6.05 µM. Also, the TGI turned out to be 4.67 µM in the assay on HS 578T breast, 1.89 µM with BT-549 breast, 6.05 µM in the assay on OVCAR-8 ovarian and 8.04 µM with TK-10 renal.
For `C=CCC1(O)c2ccccc2C(=O)c2c(OCC(=O)OCC)ccc(OCC(=O)OCC)c21` (centres undefined), the GI50 in the assay with UO-31 renal, with MCF7 breast, in the assay on SF-295 CNS, with NCI-H522 lung, in the assay with PC-3 prostate and in the assay on A549 NSCLC was above 100 µM in each case. In addition, the GI50 in the assay on HS 578T breast, in the assay with BT-549 breast, in the assay on OVCAR-8 ovarian and in the assay with TK-10 renal was above 100 µM throughout. The TGI in the assay with UO-31 renal, with MCF7 breast, with SF-295 CNS, with NCI-H522 lung, in the assay with PC-3 prostate and in the assay with A549 NSCLC was above 100 µM throughout. The TGI with HS 578T breast, in the assay on BT-549 breast, with OVCAR-8 ovarian and in the assay with TK-10 renal was above 100 µM each time.
For `CC(=O)OCC1C(=O)OCC1C(=O)N1Cc2cc3ccccc3nc2C1` (centres undefined), the TGI with UO-31 renal came out at 8.15 µM; with MCF7 breast, 3.14 µM; in the assay with SF-295 CNS, 29.9 µM; with NCI-H522 lung, 2.23 µM; in the assay with PC-3 prostate it was 20.1 µM; in the assay with A549 NSCLC it was 30.6 µM. The TGI in the assay with HS 578T breast is above 86.5 µM; with BT-549 breast it was 6.71 µM; in the assay with OVCAR-8 ovarian, 11.5 µM; with TK-10 renal, 4.17 µM.
As to `Cc1ccc(NC(=O)c2ccc(CN3CCN(C)CC3)cc2)cc1Nc1nc(-c2cccnc2)cs1`, the GI50 was 12.4 µM and 6.42 µM in the assay on UO-31 renal; 5.97 µM and 2.84 µM in the assay on MCF7 breast; 3.3 µM and 1.92 µM with SF-295 CNS; 10.5 µM and 3.55 µM with NCI-H522 lung; 5.94 µM and 4.99 µM with PC-3 prostate; 12.1 µM and 8.01 µM with A549 NSCLC. The GI50 with HS 578T breast is 8.45 µM and 3.52 µM; with BT-549 breast it was 8.5 µM and 3.79 µM; in the assay with OVCAR-8 ovarian, 6.91 µM and 3.65 µM; in the assay on TK-10 renal, 16.8 µM and > 10 µM. Further, the TGI in the assay with UO-31 renal was 26.9 µM and > 10 µM; in the assay on MCF7 breast it was 21.7 µM and > 10 µM; in the assay with SF-295 CNS it was 13.8 µM and 5.48 µM; in the assay with NCI-H522 lung it was 23.4 µM and > 10 µM; with PC-3 prostate, 19.7 µM and > 10 µM; with A549 NSCLC, 27.1 µM and > 10 µM. In addition, the TGI in the assay on HS 578T breast was 41.6 µM and > 10 µM; in the assay on BT-549 breast it was 22.1 µM and > 10 µM; in the assay on OVCAR-8 ovarian, 19.8 µM and > 10 µM; in the assay on TK-10 renal, 30.6 µM and > 10 µM.
For the molecule `CCCCn1c(=O)[nH]c(N)c([C@@H]2c3c([nH]c(=O)n(CCCC)c3=O)Oc3ccc4ccccc4c32)c1=O`, the GI50 was 1.35 µM in the assay on UO-31 renal; 2.88 µM with MCF7 breast; 5.83 µM in the assay with SF-295 CNS; 2.57 µM in the assay on NCI-H522 lung; 1.65 µM in the assay with PC-3 prostate; 11.5 µM in the assay with A549 NSCLC. For the same molecule, the GI50 in the assay with HS 578T breast was 4.55 µM; in the assay with BT-549 breast it was 1.83 µM; with OVCAR-8 ovarian, 1.82 µM; in the assay on TK-10 renal it was 2.95 µM. For the same molecule, the TGI in the assay with UO-31 renal was found to be 2.69 µM; in the assay on MCF7 breast, 24 µM; with SF-295 CNS it was 19.2 µM; in the assay with NCI-H522 lung, 6.36 µM; with PC-3 prostate, 3.23 µM; in the assay on A549 NSCLC, 24.5 µM. For the same molecule, the concentration for total growth inhibition (TGI) with HS 578T breast was determined as 37.1 µM; in the assay on BT-549 breast it was 3.57 µM; in the assay with OVCAR-8 ovarian, 3.51 µM; in the assay on TK-10 renal, 7.05 µM.
As for `N#CCCNc1nonc1-c1nc2ccccc2n1CC(=O)c1ccc(N)cc1`, the GI50 is 0.282 µM with UO-31 renal; below 0.019 µM in the assay on MCF7 breast; below 0.01 µM in the assay on SF-295 CNS; below 0.01 µM with NCI-H522 lung; 0.0271 µM in the assay on PC-3 prostate; 0.0345 µM in the assay with A549 NSCLC. For the same molecule, the results for the GI50 with HS 578T breast, in the assay with BT-549 breast and in the assay on OVCAR-8 ovarian were 0.0192 µM, 0.0289 µM and 0.0354 µM, respectively. The TGI is above 100 µM in the assay on UO-31 renal; above 100 µM in the assay with MCF7 breast; above 100 µM in the assay on SF-295 CNS; below 0.01 µM in the assay on NCI-H522 lung; above 77.8 µM in the assay on PC-3 prostate; above 100 µM in the assay with A549 NSCLC. For the same molecule, the TGI in the assay with HS 578T breast is above 100 µM; in the assay on BT-549 breast it was 22.9 µM; in the assay on OVCAR-8 ovarian, above 100 µM; with TK-10 renal it was above 90.9 µM.
Take `COC(=O)C(=O)C(C(=O)C(=O)Nc1ccc(Cl)c(Cl)c1)c1nc2ccc(C(=O)c3ccccc3)cc2[nH]c1=O` (centres undefined): the TGI with UO-31 renal, in the assay with MCF7 breast, with SF-295 CNS, in the assay with NCI-H522 lung, in the assay on PC-3 prostate and in the assay with A549 NSCLC was above 100 µM in each case. Also, the TGI in the assay on HS 578T breast, in the assay on BT-549 breast, in the assay with OVCAR-8 ovarian and in the assay on TK-10 renal was above 100 µM in each case.
